{"source": "patent US12565680B2", "about": "“Cancer neoantigens and their utilities in cancer vaccines and TCR-based cancer immunotherapy” (THE METHODIST HOSPITAL SYSTEM, priority 2018, dated 2026)", "system": "135TIL", "test": "TCR β CDR3 repertoire analysis", "set-up": "species or system human", "conditions": "TCRβ CDR3 profiling", "excerpt": "To address this issue, PCDHB16 neoantigen-specific CD4^+ T cells were isolated by FACS sorting of PCDHB16-neoantigen T cells from freshly generated bulk T cells after stimulated PCDHB16 neoepitope peptide-pulsed 135EBV-B cells. Using the similar approach, MPG-specific CD8+ T cells were also purified from freshly generated bulk T cells after stimulated MPG neoepitope peptide-pulsed 135EBV-B cells. Genomic DNAs were isolated from the two purified neoantigen-specific T cell populations, as well as the parental bulk T cells, and used as templates for TCR β-chain CDR3 repertoire amplification. […] After the amplicons (from PCDHB16-, MPG-specific T cells and bulk 135TIL) were subjected to deep-sequenced via next-generation sequencing (reads>100,000 per sample), followed by bioinformatic analysis and TCR repertoire alignment. […] The relative TCR sequence frequencies that were identical to those in PCDHB16-specific T cells and MPG-specific T cells were determined in total 135TIL cell population (FIG. 10F). […]\nCytokine Secretion Assay-Detection Kit (MACS Miltenyi Biotec) was used in cell-surface IFN-γ staining based on a commercial protocol. […] Finally cells were washed with cold buffer and ready for flow cytometric analysis. […]"}
{"sequence": "ENSPLGTEFPLNYALDLDVGSNNVQ [PCDHB16, immunodominant MHC-II neoantigen of patient #135]", "values": [{"measurement": "neoantigen-specific TCRs in the total 135TIL TCRs", "value": 36, "unit": "%"}]}
